Source: the OligoGym collection
After the bases stand the sugars from the 5' end (letter, count) and the backbone: PS all phosphorothioate, else s phosphorothioate and o phosphodiester by linkage. Methylation of C is not given here. e = 2'-O-(2-methoxyethyl) (MOE); k = constrained ethyl (cEt); d = 2'-deoxy (DNA); m = 2'-O-methyl

Biological target: HSD17B13
Conditions: ASO, HepaRG

| Sequence | target mRNA inhibition (1 µM) | other results |
| --- | --- | --- |
| GAACAATATGGGATGA (sugars k3 d9 k3 e1, PS) | 52% |  |
| TTAGGGAGGTAGCTTT (sugars k3 d10 k3, PS) | 54% |  |
| ATTGATTCGAAACTAT (sugars k3 d10 k3, PS) | 22% |  |
| CAGGGTGGTAACGGTG (sugars k3 d1 m1 d8 k3, PS) | 29% |  |
| GCTCCATAATAATAGC (sugars k3 d1 m1 d8 k3, PS) | 16% |  |
| TTGAATAGCAAGCCAA (sugars k3 d1 m1 d8 k3, PS) | 30% |  |
| CTGTAGGACTCTGCTC (sugars k3 d10 k3, PS) | 48% |  |
| CCTAAGTTATTATCCC (sugars k3 d10 k3, PS) | 18% |  |
| GGCTAGGATTAATCAT (sugars k3 d10 k3, PS) | 44% |  |
| TCCTGTGTTAGCTTTA (sugars kkdddddddddkekek, PS) | 79% | target mRNA inhibition (0.02 µM): 18%; target mRNA inhibition (0.078 µM): 29%; target mRNA inhibition (0.313 µM): 54%; target mRNA inhibition (1.25 µM): 71%; target mRNA inhibition (5 µM): 86% |
| TTGATATTCTGTGGCA (sugars k3 d10 k3, PS) | 87% | target mRNA inhibition (0.02 µM): 0%; target mRNA inhibition (0.078 µM): 17%; target mRNA inhibition (0.313 µM): 58%; target mRNA inhibition (1.25 µM): 80%; target mRNA inhibition (5 µM): 94% |
| TAGAATAGTCTTCAGC (sugars k3 d1 m1 d8 k3, PS) | 30% |  |
| GCTGAGTGGATTACAT (sugars k3 d10 k3, PS) | 44% |  |
| AGGATAGTCCATGCAA (sugars k3 d10 k3, PS) | 64% |  |
| GGGAAATTGTTGCTGT (sugars k3 d10 k3, PS) | 42% |  |
| GTTTCAAAAAGGCCCA (sugars k3 d10 k3, PS) | 39% |  |
| ATATAGAGGGTCCACT (sugars k3 d10 k3, PS) | 18% |  |
| GATTAAGCAGAATTGT (sugars k3 d1 m1 d8 k3, PS) | 28% |  |
| TCTCTCCATCATCGAT (sugars k3 d10 k3, PS) | 24% |  |
| ATCCCAACCAAACTTC (sugars k3 d10 k3, PS) | 15% |  |
| AAATATAGAGGGTCCA (sugars k3 d10 k3, PS) | 0% |  |
| TCTCTTGGGTCCATTG (sugars k3 d10 k3, PS) | 63% |  |
| GTCTUGATGTAGTGGG (sugars k3 d1 m1 d8 k3, PS) | 63% |  |

| Sequence | target mRNA inhibition (1 µM) | other results |
| --- | --- | --- |
| TTATGTGATTGAGTTC (sugars kkdddddddddkekek, PS) | 21% |  |
| GGAGCTAGATACTCAA (sugars k3 d10 k3, PS) | 42% |  |
| GACATAACTTCATAGT (sugars k3 d10 k3, PS) | 39% |  |
| CTTGAATGAGTGGTCT (sugars k3 d10 k3, PS) | 64% | target mRNA inhibition (0.02 µM): 10%; target mRNA inhibition (0.078 µM): 16%; target mRNA inhibition (0.313 µM): 46%; target mRNA inhibition (1.25 µM): 69%; target mRNA inhibition (5 µM): 88% |
| AGAAATTCACCTTGAC (sugars k3 d9 k3 e1, PS) | 7% |  |
| TGAGATGGGCAAGGCC (sugars k3 d10 k3, PS) | 53% |  |
| TGCTACTTGAACAGTC (sugars k3 d1 m1 d8 k3, PS) | 65% |  |
| AATTGATACACCAATG (sugars k3 d1 m1 d8 k3, PS) | 40% |  |
| CATATCATTATCATGC (sugars k3 d10 k3, PS) | 66% |  |
| CTCCACACCGCGCTTA (sugars k3 d10 k3, PS) | 7% |  |
| ATTTTTGGTGAACCCA (sugars k3 d10 k3, PS) | 8% |  |
| ATCTATCAGACTTCTT (sugars k3 d10 k3, PS) | 47% |  |
| CAGGTTGAGATAAAGC (sugars k3 d10 k3, PS) | 49% |  |
| CTAGTGCCAAACCAAT (sugars k3 d10 k3, PS) | 49% |  |
| CTAAAGCAGGCTACTT (sugars k3 d10 k3, PS) | 32% |  |
| GTGGGAGTCGGATTAT (sugars k3 d10 k3, PS) | 37% |  |
| CAAGAGGATAGTCCAT (sugars k3 d1 m1 d8 k3, PS) | 60% |  |
| TGGTAGCTTGCTCACT (sugars k3 d10 k3, PS) | 71% | target mRNA inhibition (0.02 µM): 16%; target mRNA inhibition (0.078 µM): 31%; target mRNA inhibition (0.313 µM): 48%; target mRNA inhibition (1.25 µM): 72%; target mRNA inhibition (5 µM): 81% |
| CTATAGTAATCACAAG (sugars kkdddddddddkekek, PS) | 36% |  |
| CTCTAAGTTAGCCCCC (sugars k3 d10 k3, PS) | 38% |  |
| ATGGTAAGGAGTAGTG (sugars k3 d10 k3, PS) | 17% |  |
| ATTATTTCTTGCGAGA (sugars k3 d10 k3, PS) | 60% |  |
| CTAAACTAGTGGTAAT (sugars k3 d10 k3, PS) | 23% |  |

| Sequence | target mRNA inhibition (1 µM) | other results |
| --- | --- | --- |
| GGATTTCTAGGATGAT (sugars k3 d10 k3, PS) | 58% |  |
| GCCAAACTGCTACTGT (sugars k3 d10 k3, PS) | 73% | target mRNA inhibition (0.02 µM): 1%; target mRNA inhibition (0.078 µM): 13%; target mRNA inhibition (0.313 µM): 41%; target mRNA inhibition (1.25 µM): 63%; target mRNA inhibition (5 µM): 76% |
| TGCTACTTGAACAGTC (sugars kkdddddddddkekek, PS) | 64% |  |
| AGTAGGAGTAGATGAT (sugars k3 d10 k3, PS) | 0% |  |
| AGTAGTAATTCTAAAC (sugars k3 d10 k3, PS) | 23% |  |
| ATTAAGTACTGTGAGA (sugars k3 d10 k3, PS) | 1% |  |
| GAAGTTTTTAAGAGGC (sugars k3 d10 k3, PS) | 64% |  |
| GAAATTCACCTTGACT (sugars k3 d10 k3, PS) | 41% |  |
| TAAGTTATTATCCCCA (sugars k3 d10 k3, PS) | 70% |  |
| ACCGCGCTTATTAATA (sugars k3 d10 k3, PS) | 4% |  |
| ACTTACCAATATGGGA (sugars k3 d10 k3, PS) | 0% |  |
| CGTTTTGGGCTAATGA (sugars kkdddddddddkekek, PS) | 37% |  |
| ATATGTCCAGGTTGAG (sugars kkdddddddddkekek, PS) | 28% |  |
| AATAATGGGCAGAGCT (sugars k3 d10 k3, PS) | 43% |  |
| TATAACATGGCTGGCA (sugars k3 d10 k3, PS) | 33% |  |
| TTGTCTAAACATCTCT (sugars k3 d10 k3, PS) | 60% |  |
| GATTAGTCTTGATGTA (sugars k3 d10 k3, PS) | 65% |  |
| CTAATTTAGTCAACTT (sugars k3 d10 k3, PS) | 40% |  |
| ATAGAGGGTCCACTTT (sugars k3 d10 k3, PS) | 21% |  |
| AAGAGTCAGTATCCTC (sugars k3 d1 m1 d8 k3, PS) | 55% |  |
| TAGTAATCACAAGTAA (sugars k3 d1 m1 d8 k3, PS) | 38% |  |
| TTCTTATGTAATAGCC (sugars k3 d9 k3 e1, PS) | 73% | target mRNA inhibition (0.02 µM): 17%; target mRNA inhibition (0.078 µM): 25%; target mRNA inhibition (0.313 µM): 57%; target mRNA inhibition (1.25 µM): 76%; target mRNA inhibition (5 µM): 85% |
| TAGTCTTCAGCAAAGT (sugars k3 d9 k3 e1, PS) | 36% |  |

| Sequence | target mRNA inhibition (1 µM) | other results |
| --- | --- | --- |
| TGGTAAGTATTCCATC (sugars k3 d10 k3, PS) | 26% |  |
| AGCATTCATCAGATGT (sugars k3 d10 k3, PS) | 83% | target mRNA inhibition (0.02 µM): 0%; target mRNA inhibition (0.078 µM): 12%; target mRNA inhibition (0.313 µM): 40%; target mRNA inhibition (1.25 µM): 65%; target mRNA inhibition (5 µM): 56% |
| AATTTTCAGATCCCGT (sugars k3 d10 k3, PS) | 74% |  |
| ATACTTTTCCGTCTCA (sugars k3 d10 k3, PS) | 90% | target mRNA inhibition (0.02 µM): 10%; target mRNA inhibition (0.078 µM): 41%; target mRNA inhibition (0.313 µM): 71%; target mRNA inhibition (1.25 µM): 90% |
| GTAATTAATCTTGTTC (sugars k3 d10 k3, PS) | 52% |  |
| AGTGCATCTTAAGATA (sugars k3 d9 k3 e1, PS) | 12% |  |
| CTTAAACCTTCCCTGT (sugars kkdddddddddkekek, PS) | 36% |  |
| TATGTGATTGAGTTCT (sugars kkdddddddddkekek, PS) | 23% |  |
| AATATGGGATGAGGTA (sugars k3 d10 k3, PS) | 53% |  |
| GAGTATGACAACTGGA (sugars k3 d10 k3, PS) | 23% |  |
| CCCAAGAGTGGCAGGA (sugars k3 d10 k3, PS) | 29% |  |
| GGCTGTAAGAGTCAGT (sugars k3 d10 k3, PS) | 88% | target mRNA inhibition (0.02 µM): 0%; target mRNA inhibition (0.078 µM): 0%; target mRNA inhibition (0.313 µM): 0%; target mRNA inhibition (1.25 µM): 51%; target mRNA inhibition (5 µM): 42% |
| GACTACGGACTGGCAA (sugars k3 d10 k3, PS) | 60% |  |
| TGTATTAAGACAGTTG (sugars k3 d10 k3, PS) | 34% |  |
| GACCAAGTAGCTTACA (sugars k3 d10 k3, PS) | 28% |  |
| AAAGACTTTGAGACTC (sugars k3 d9 k3 e1, PS) | 67% |  |
| CTAAGTTAGCCCCCAG (sugars k3 d10 k3, PS) | 15% |  |
| CTTGATCTCTTAGCTG (sugars kkdddddddddkekek, PS) | 49% |  |
| CTTCATAGTGGACTTC (sugars k3 d10 k3, PS) | 79% | target mRNA inhibition (0.02 µM): 3%; target mRNA inhibition (0.078 µM): 4%; target mRNA inhibition (0.313 µM): 28%; target mRNA inhibition (1.25 µM): 66%; target mRNA inhibition (5 µM): 93% |
| TGCTGCTAGTGCCAAA (sugars k3 d10 k3, PS) | 58% |  |
| TAGTGCCAAACCAATG (sugars kkdddddddddkekek, PS) | 66% | target mRNA inhibition (0.02 µM): 11%; target mRNA inhibition (0.078 µM): 18%; target mRNA inhibition (0.313 µM): 27%; target mRNA inhibition (1.25 µM): 53%; target mRNA inhibition (5 µM): 57% |
| TTAATGCCACCCTACC (sugars kkdddddddddkekek, PS) | 11% |  |
